From patent publication US12458605B2, “Lipid nanoparticle” (National University Corporation Hokkaido University, priority 2020, dated 2025)
Several values for one entry are separate records, joined by “and”; a condition that tells them apart may be missing. Equal entries are not always repeated.

Key:
[1] = Average particle size (ζ-Average) and PDI by dynamic light scattering (Zetasizer Nano ZSP); format: physicochemical
In short: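 Dynamic light scattering of the particles in PBS(−) gave both the polydispersity index and the ζ-Average mean size.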

[2] = siRNA/mRNA encapsulation rate by Ribogreen reagent (section IV); format: physicochemical; conditions: for % siRNA encapsulation: F7siRNA-loaded LNP, 50:10:38.5:1.5, N/P ratio 6; for % mRNA encapsulation: FlucmRNA-loaded LNP, 50:10:38.5:1.5
In short: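 Encapsulation % was calculated as (total − surface nucleic acid)/total × 100, with both values measured by RiboGreen fluorescence at 485/528 nm. Total RNA was read on LNPs lysed with 1% Triton X-100 at 1.2 μg/mL, and surface RNA on intact LNPs at 8 μg/mL in TE buffer. Concentrations came from a 0-2.5 μg/mL Triton-containing calibration curve.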

liver = assay: In vivo Fluc activity of FlucmRNA-loaded LNP by in vivo imaging, liver; conditions: Balb/c mice, 6 hours; for Fluc Activity in liver: FlucmRNA-loaded LNP i.v. 0.1 mg mRNA/kg
In short: (§1)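 Read-out is average radiance (p/s/cm2/sr, about 560 nm) from whole-animal imaging of liver and spleen 6 h post-dose, after tail-vein luciferin at 1.5 mg/mouse. Dosing was intravenous, 0.1 mg mRNA/kg, in 7-week-old female Balb/c mice.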

spleen = assay: In vivo Fluc activity of FlucmRNA-loaded LNP by in vivo imaging, spleen; conditions: Balb/c mice, 6 hours; for Fluc activity in the spleen, compared with CL15F6 / Fluc activity in the spleen, compared with CL4F6: 0.1 mg mRNA/kg; for Fluc activity in the spleen, compared with CL15F6: versus LNP comprising CL15F6 (Table 7); for Fluc Activity in spleen: FlucmRNA-loaded LNP i.v. 0.1 mg mRNA/kg; for Fluc activity in the spleen, compared with CL4F6: versus LNP comprising CL4F6 (Tables 5 and 6)
In short: as §1

F7 = assay: In vivo F7 knockdown, plasma F7 enzyme activity (BIOPHEN FVII), Balb/c mice; conditions: for F7 enzyme activity (Ratio using MC3 as 1) / F7 enzyme activity (%): i.v. 0.025 mg siRNA/kg, plasma at 24 hours; for F7 enzyme activity (Ratio using MC3 as 1): relative plasma F7 activity of MC3 LNP as 1; for F7 enzyme activity (%): untreated mice as 100%; for knockdown activity, compared with MC3: F7siRNA-loaded LNP, versus LNP comprising MC3
In short: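 Plasma factor VII activity was read 24 h after a single intravenous 0.025 mg siRNA/kg dose of siRNA-loaded lipid nanoparticles in 5-week-old female Balb/c mice. Activity is relative to untreated animals (100%) and normalised to the MC3 nanoparticle benchmark (=1).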

[3] = Storage stability of FlucmRNA-loaded LNP at −80, 5, 25 and 40° C.; format: physicochemical; conditions: for period for which quality remained good, −80° C.: maximum storage period 1 week; for period for which quality remained good, 5° C. / period for which quality remained good, 25° C. / period for which quality remained good, 40° C. (weeks) / period for which quality remained good, 40° C. (days): maximum storage period 5 weeks
In short: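 Reported period is how long all three criteria hold: encapsulation rate at 80% or more, PDI of 0.2 or less, and mean particle size within +/−20 nm of day-of-preparation value. Particle size, PDI and nucleic acid encapsulation were tracked over time at storage temperatures of −80, 5, 25 and 40° C.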

[4] = F7siRNA-loaded LNP, 50:10:38.5:1.5, N/P ratio 6
[5] = FlucmRNA-loaded LNP, 50:10:38.5:1.5
[6] = FlucmRNA-loaded LNP, lipid:DSPC:cholesterol:DMG-PEG2K 50:10:38.5:1.5

Compound	PDI [1, 4]	ζ-Average (nm) [1, 4]	PDI [1, 5]	ζ-Average (nm) [1, 6] [nm]	% siRNA encapsulation [2]	% mRNA encapsulation [2] [%]	period for which quality remained good, −80° C. [3] [week]	period for which quality remained good, 5° C. [3] [weeks]	period for which quality remained good, 25° C. [3] [weeks]	period for which quality remained good, 40° C. (weeks) [3]	period for which quality remained good, 40° C. (days) [3] [day days]	Fluc Activity in liver (liver)	Fluc activity in the spleen, compared with CL15F6 (spleen)	Fluc Activity in spleen (spleen)	F7 enzyme activity (Ratio using MC3 as 1) (F7)	F7 enzyme activity (%) (F7)	Fluc activity in the liver, compared with CL4F6 (liver; 0.1 mg mRNA/kg, versus LNP comprising CL4F6 (Tables 5 and 6))	Fluc activity in the spleen, compared with CL4F6 (spleen)	Fluc activity in the liver, compared with CL15F6 (liver; 0.1 mg mRNA/kg, versus LNP comprising CL15F6 (Table 7))	knockdown activity, compared with MC3 (F7)
CCCCCCCCC(CCCCCCC)C(=O)OCCCCCCC(O)(CCCCCCOC(=O)C(CCCCCCC)CCCCCCCC)CCCCN(CCC)CCC (centres unmarked) [CL4F 10-7]	0.013	89.34 nm	0.039	79.68	100.1%	99.8	1	5	5	5 weeks		1.19E+08 Avg Radiance [p/s/cm2/sr]		2.03E+06 Avg Radiance [p/s/cm2/sr]		4.1				
CCCCCCC(CCCCCC)C(=O)OCCCCCCC(O)(CCCCCCOC(=O)C(CCCCCC)CCCCCC)CCCCN(CCC)CCC [CL4F 8-6]	0.010	99.72 nm	0.022	88.78	100.0%	99.4	1	5	5	1 week weeks		1.80E+08 Avg Radiance [p/s/cm2/sr]		9.58E+06 Avg Radiance [p/s/cm2/sr]		3	higher Fluc activity	higher Fluc activity		
CCCCCC(CCCCC)C(=O)OCCCCCCC(O)(CCCCCCOC(=O)C(CCCCC)CCCCC)CCCCN(CCC)CCC [CL4F 7-5]	0.021	120.20 nm	0.057	109.80	100.1%	99.9	1	2	5	1 week weeks		4.56E+07 Avg Radiance [p/s/cm2/sr]		1.47E+07 Avg Radiance [p/s/cm2/sr]		35.7		higher Fluc activity		
CCCCCCCCC(CC)C(=O)OCCCCCCC(O)(CCCCCCOC(=O)C(CC)CCCCCCCC)CCCCN(CCC)CCC (centres unmarked) [CL4F 10-2]	0.024	115.60 nm	0.068	93.60	99.6%	98.6	0	5	1		0	3.02E+07 Avg Radiance [p/s/cm2/sr]		6.40E+06 Avg Radiance [p/s/cm2/sr]		11.4		higher Fluc activity		
CCCCCCCCC(CCCC)C(=O)OCCCCCCC(O)(CCCCCCOC(=O)C(CCCC)CCCCCCCC)CCCCN(CCC)CCC (centres unmarked) [CL4F 10-4]	0.021	95.37 nm	0.041	84.92	100.1%	99.8	1	5	5		0	1.20E+08 Avg Radiance [p/s/cm2/sr]		6.70E+06 Avg Radiance [p/s/cm2/sr]		1.7		higher Fluc activity		higher knockdown activity

Second part, led by results:

PDI [1, 4]	ζ-Average (nm) [1, 4]	PDI [1, 5]	ζ-Average (nm) [1, 6] [nm]	% siRNA encapsulation [2]	% mRNA encapsulation [2] [%]	period for which quality remained good, −80° C. [3] [week]	period for which quality remained good, 5° C. [3] [weeks]	period for which quality remained good, 25° C. [3] [weeks]	period for which quality remained good, 40° C. (weeks) [3]	period for which quality remained good, 40° C. (days) [3] [day days]	Compound	Fluc Activity in liver (liver)	Fluc activity in the spleen, compared with CL15F6 (spleen)	Fluc Activity in spleen (spleen)	F7 enzyme activity (Ratio using MC3 as 1) (F7)	F7 enzyme activity (%) (F7)	Fluc activity in the liver, compared with CL4F6 (liver; 0.1 mg mRNA/kg, versus LNP comprising CL4F6 (Tables 5 and 6))	Fluc activity in the spleen, compared with CL4F6 (spleen)	Fluc activity in the liver, compared with CL15F6 (liver; 0.1 mg mRNA/kg, versus LNP comprising CL15F6 (Table 7))	knockdown activity, compared with MC3 (F7)
0.039	180.6 nm	0.007	196.00	98.8%	97.6	0	5	5	5 weeks		CCCCCC(CCCCC)C(=O)OCCCCCCC(O)(CCCCCCOC(=O)C(CCCCC)CCCCC)CCCCOC(=O)C1CCN(C)CC1 [CL15F 7-5]	2.15E+06 Avg Radiance [p/s/cm2/sr]	higher Fluc activity	1.37E+07 Avg Radiance [p/s/cm2/sr]	1.74					
0.021	126.8 nm	0.030	146.10	100.3%	98.7	1	5	5	5 weeks		CCCCCCCCC(CCCC)C(=O)OCCCCCCC(O)(CCCCCCOC(=O)C(CCCC)CCCCCCCC)CCCCOC(=O)C1CCN(C)CC1 (centres unmarked) [CL15F 10-4]	2.07E+06 Avg Radiance [p/s/cm2/sr]		3.97E+06 Avg Radiance [p/s/cm2/sr]	2.00					
0.029	104.9 nm	0.023	99.31	101.1%	99.78	1	5	5	5 weeks		CCCCCCCCCC(CCCCCCCCC)C(=O)OCCCCCCC(O)(CCCCCCOC(=O)C(CCCCCCCCC)CCCCCCCCC)CCCCOC(=O)C1CCN(C)CC1 [CL15F 11-9]	3.66E+07 Avg Radiance [p/s/cm2/sr]	higher Fluc activity	7.55E+06 Avg Radiance [p/s/cm2/sr]	0.50				higher Fluc activity	higher knockdown activity
0.019	94.76 nm	0.021	79.45	99.8%	99.7	1	5	5	5 weeks		CCCCCCCCCC(CCCCCCC)C(=O)OCCCCCCC(O)(CCCCCCOC(=O)C(CCCCCCC)CCCCCCCCC)CCCCN(CCC)CCC (centres unmarked) [CL4F 11-7]	1.23E+08 Avg Radiance [p/s/cm2/sr]		2.03E+06 Avg Radiance [p/s/cm2/sr]		14.1				
0.012	89.72 nm	0.019	81.81	100.1%	99.6	1	5	5	1 week weeks		CCCCCCCCCC(CCCCC)C(=O)OCCCCCCC(O)(CCCCCCOC(=O)C(CCCCC)CCCCCCCCC)CCCCN(CCC)CCC (centres unmarked) [CL4F 11-5]	4.50E+07 Avg Radiance [p/s/cm2/sr]		1.03E+06 Avg Radiance [p/s/cm2/sr]		4.3				
0.012 and 0.008	92.28 nm and 94.26 nm	0.017	82.84	99.3% and 99.6%	99.7	1	5	5	5 weeks		CCCCCCCCCCC(CCCCCC)C(=O)OCCCCCCC(O)(CCCCCCOC(=O)C(CCCCCC)CCCCCCCCCC)CCCCN(CCC)CCC (centres unmarked) [CL4F 12-6]	5.86E+07 Avg Radiance [p/s/cm2/sr]		1.72E+06 Avg Radiance [p/s/cm2/sr]	0.18	6				higher knockdown activity
